Experimental data published in patent US11739098B2 (BRISTOL-MYERS SQUIBB COMPANY, priority 2017, dated 2023).

Tests used:
Type in all cases: cell-based
human TLR7 = biological target: T1, human TLR7 (Homo sapiens, UniProt Q9NYK1); test: TLR7 inhibition reporter assay (HEK-Blue cells, SEAP reporter, gardiquimod stimulation); details: HEK-Blue cells overexpressing human TLR7, SEAP reporter, gardiquimod 7.5 μM
T1 construct: host or cells: HEK-Blue cells (HEK293-derived reporter line)
T1 sequence (Q9NYK1 27-1049): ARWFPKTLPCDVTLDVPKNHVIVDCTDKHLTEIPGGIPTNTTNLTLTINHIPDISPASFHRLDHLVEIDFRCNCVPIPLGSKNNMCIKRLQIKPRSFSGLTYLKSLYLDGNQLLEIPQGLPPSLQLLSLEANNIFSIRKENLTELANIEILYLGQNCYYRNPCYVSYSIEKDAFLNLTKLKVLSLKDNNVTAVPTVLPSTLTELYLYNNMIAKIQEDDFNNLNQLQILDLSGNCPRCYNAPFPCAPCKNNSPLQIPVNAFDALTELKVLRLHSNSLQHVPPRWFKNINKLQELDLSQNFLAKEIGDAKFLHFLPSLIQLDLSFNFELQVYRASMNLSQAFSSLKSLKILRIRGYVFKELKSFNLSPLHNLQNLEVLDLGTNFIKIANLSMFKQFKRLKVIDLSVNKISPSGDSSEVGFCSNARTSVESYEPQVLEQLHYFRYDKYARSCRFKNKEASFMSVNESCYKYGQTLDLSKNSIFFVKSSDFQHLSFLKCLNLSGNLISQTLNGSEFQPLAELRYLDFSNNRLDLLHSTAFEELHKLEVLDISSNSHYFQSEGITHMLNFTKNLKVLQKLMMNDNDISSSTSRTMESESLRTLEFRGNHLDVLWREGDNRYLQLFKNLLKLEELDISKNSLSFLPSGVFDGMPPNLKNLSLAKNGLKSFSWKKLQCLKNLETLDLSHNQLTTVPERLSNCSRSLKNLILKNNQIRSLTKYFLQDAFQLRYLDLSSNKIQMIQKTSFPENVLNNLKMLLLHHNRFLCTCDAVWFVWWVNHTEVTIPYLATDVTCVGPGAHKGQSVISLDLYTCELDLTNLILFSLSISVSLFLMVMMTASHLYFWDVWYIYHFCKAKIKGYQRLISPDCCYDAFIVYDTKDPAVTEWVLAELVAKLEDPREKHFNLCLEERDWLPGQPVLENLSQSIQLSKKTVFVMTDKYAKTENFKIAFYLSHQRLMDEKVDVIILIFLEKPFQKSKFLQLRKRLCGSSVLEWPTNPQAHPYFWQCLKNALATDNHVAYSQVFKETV
Procedure, shortened: (§1)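 Read-out is SEAP activity in HEK-Blue detection medium after 22 h at 37 °C, converted to percent inhibition against agonist-plus-DMSO and reference-inhibitor controls. Cells saw compound (0.05 nM–50 μM, 30 min, room temperature) before gardiquimod 7.5 μM, R848 15.9 μM or ODN2006 5 nM for TLR7, TLR8 and TLR9, respectively.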

human TLR8 = biological target: T2, human TLR8 (Homo sapiens, UniProt Q9NR97); test: TLR8 inhibition reporter assay (HEK-Blue cells, SEAP reporter, R848 stimulation); details: HEK-Blue cells overexpressing human TLR8, SEAP reporter, R848 15.9 μM
T2 construct: host or cells: HEK-Blue cells (HEK293-derived reporter line)
T2 sequence (Q9NR97 27-1041): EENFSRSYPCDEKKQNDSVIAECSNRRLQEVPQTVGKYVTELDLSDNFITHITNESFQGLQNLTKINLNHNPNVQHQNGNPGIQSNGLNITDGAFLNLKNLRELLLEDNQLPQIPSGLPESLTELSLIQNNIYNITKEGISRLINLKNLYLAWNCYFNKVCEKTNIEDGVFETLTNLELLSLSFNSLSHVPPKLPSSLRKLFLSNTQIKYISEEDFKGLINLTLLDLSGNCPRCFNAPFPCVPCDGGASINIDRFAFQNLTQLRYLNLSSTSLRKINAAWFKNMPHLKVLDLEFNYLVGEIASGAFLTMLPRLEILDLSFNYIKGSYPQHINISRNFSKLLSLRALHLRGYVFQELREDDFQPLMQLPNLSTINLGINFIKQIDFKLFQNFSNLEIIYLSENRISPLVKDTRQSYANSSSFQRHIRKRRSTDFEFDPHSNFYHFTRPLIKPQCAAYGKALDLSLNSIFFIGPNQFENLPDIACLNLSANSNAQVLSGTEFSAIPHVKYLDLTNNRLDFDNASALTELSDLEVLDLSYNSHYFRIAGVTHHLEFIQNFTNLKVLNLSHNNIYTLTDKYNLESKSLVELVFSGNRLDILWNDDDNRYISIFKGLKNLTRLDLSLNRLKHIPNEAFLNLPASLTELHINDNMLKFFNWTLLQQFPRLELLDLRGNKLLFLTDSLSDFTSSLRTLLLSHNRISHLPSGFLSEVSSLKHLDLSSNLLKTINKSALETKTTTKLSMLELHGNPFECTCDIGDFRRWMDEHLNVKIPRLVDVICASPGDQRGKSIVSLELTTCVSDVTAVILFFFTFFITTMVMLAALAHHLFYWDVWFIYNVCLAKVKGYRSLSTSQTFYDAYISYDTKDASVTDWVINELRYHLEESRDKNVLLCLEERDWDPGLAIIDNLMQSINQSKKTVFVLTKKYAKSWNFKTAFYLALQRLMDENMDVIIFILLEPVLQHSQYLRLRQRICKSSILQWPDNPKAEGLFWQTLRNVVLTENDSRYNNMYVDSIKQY
Procedure, shortened: as §1

human TLR9 = biological target: T3, human TLR9 (Homo sapiens, UniProt Q9NR96); test: TLR9 inhibition reporter assay (HEK-Blue cells, SEAP reporter, ODN2006 stimulation); details: HEK-Blue cells overexpressing human TLR9, SEAP reporter, ODN2006 5 nM
T3 construct: host or cells: HEK-Blue cells (HEK293-derived reporter line)
T3 sequence (Q9NR96 26-1032): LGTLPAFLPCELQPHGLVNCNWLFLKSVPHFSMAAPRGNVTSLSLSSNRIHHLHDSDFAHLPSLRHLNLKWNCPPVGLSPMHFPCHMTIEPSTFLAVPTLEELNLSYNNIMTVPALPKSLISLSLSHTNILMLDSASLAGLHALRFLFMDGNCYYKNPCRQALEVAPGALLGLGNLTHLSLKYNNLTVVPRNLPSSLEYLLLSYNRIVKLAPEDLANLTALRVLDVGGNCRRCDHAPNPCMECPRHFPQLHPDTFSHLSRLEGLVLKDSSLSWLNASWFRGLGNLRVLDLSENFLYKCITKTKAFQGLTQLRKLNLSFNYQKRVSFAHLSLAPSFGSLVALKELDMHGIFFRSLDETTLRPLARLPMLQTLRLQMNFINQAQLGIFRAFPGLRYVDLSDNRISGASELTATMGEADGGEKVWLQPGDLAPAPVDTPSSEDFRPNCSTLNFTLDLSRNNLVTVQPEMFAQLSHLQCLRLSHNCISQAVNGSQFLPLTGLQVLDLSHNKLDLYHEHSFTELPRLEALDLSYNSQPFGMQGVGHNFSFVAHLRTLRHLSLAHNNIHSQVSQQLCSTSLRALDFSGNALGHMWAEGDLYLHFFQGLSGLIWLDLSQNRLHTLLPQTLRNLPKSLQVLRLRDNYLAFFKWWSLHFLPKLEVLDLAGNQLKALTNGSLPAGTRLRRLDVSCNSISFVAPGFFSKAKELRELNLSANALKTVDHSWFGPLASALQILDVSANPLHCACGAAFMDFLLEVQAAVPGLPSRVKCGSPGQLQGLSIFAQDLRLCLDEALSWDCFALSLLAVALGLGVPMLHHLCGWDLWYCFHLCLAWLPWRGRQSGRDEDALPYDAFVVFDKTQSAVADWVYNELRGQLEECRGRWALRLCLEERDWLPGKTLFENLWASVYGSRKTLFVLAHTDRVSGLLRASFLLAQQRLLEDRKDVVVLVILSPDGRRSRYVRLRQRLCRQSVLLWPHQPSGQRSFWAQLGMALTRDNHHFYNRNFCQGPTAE
Procedure, shortened: as §1

IC50 (human TLR7) | IC50 (human TLR8) | IC50 (human TLR9) | Compound
< 100 nM | < 100 nM | 100 to 1000 nM | COc1cc(-c2[nH]c3ccc(C4CCN(CC(C)(C)O)CC4)cc3c2C(C)C)cn2ccnc12 [Example 775, 1-(4-(3-isopropyl-2-(8-methoxyimidazo[1,2-a]pyridin-6-yl)-1H-indol-5-yl)piperidin-1-yl)-2-methylpropan-2-ol]
< 100 nM | < 100 nM | 100 to 1000 nM | CNCCN1CCC(c2ccc3[nH]c(-c4ccnc5[nH]ncc45)c(C(C)C)c3c2)C(F)C1 (stereo not drawn) [Example 679, 2-(3-fluoro-4-(3-isopropyl-2-(1H-pyrazolo[3,4-b]pyridin-4-yl)-1H-indol-5-yl)piperidin-1-yl)-N-methylethan-1-amine]
< 100 nM | < 100 nM | 1000 to 50000 nM | Cc1c(C2CCNCC2)ccc2[nH]c(-c3ccnc4[nH]ncc34)c(C)c12 [Example 256, 4-(3,4-dimethyl-5-(piperidin-4-yl)-1H-indol-2-yl)-1H-pyrazolo[3,4-b]pyridine]
< 100 nM | < 100 nM | 1000 to 50000 nM | Cc1c(-c2[nH]c3ccc(C4CCN(CCS(C)(=O)=O)CC4)cc3c2C(C)C)cn2nnnc2c1C [Example 786, 6-(3-isopropyl-5-(1-(2-(methylsulfonyl)ethyl)piperidin-4-yl)-1H-indol-2-yl)-7,8-dimethyltetrazolo[1,5-a]pyridine]
100 to 1000 nM | 100 to 1000 nM | 1000 to 50000 nM | Cc1cc(-c2[nH]c3ccc(C4CCN(CCCC(F)(F)F)CC4)cc3c2C(C)C)cn2nncc12 [Example 960, 6-(3-isopropyl-5-(1-(4,4,4-trifluorobutyl)piperidin-4-yl)-1H-indol-2-yl)-4-methyl-[1,2,3]triazolo[1,5-a]pyridine]
< 100 nM | < 100 nM | 1000 to 50000 nM | Cc1cc(-c2[nH]c3ccc(C4CCN(C(=O)CCN5CC(C)(C)OC(C)(C)C5)CC4)cc3c2C(C)C)cn2nnnc12 [Example 621, 1-(4-(3-isopropyl-2-(8-methyltetrazolo[1,5-a]pyridin-6-yl)-1H-indol-5-yl)piperidin-1-yl)-3-(2,2,6,6-tetramethylmorpholino)propan-1-one]
< 100 nM | < 100 nM | 1000 to 50000 nM | Cc1cc(-c2[nH]c3ccc(C4CCNCC4)cc3c2C(C)C)cc2ocnc12 [Example 234, 6-(3-isopropyl-5-(piperidin-4-yl)-1H-indol-2-yl)-4-methylbenzo[d]oxazole]
> 3130 nM | > 3130 nM | 1000 to 50000 nM | Cc1cc2cc(-c3[nH]c4ccc(C5CCN(C(=O)CN(C)C)CC5)cc4c3C(C)C)cc(CC(C)C)n2n1 [Example 524, 2-(dimethylamino)-1-(4-(2-(7-isobutyl-2-methylpyrazolo[1,5-a]pyridin-5-yl)-3-isopropyl-1H-indol-5-yl)piperidin-1-yl)ethan-1-one]

Further lines, the compound ahead of its results:

Compound | IC50 (human TLR7) | IC50 (human TLR8) | IC50 (human TLR9)
CCN(C)CC(=O)N1CCC(c2ccc3[nH]c(-c4cc(C)c5nnnn5c4)c(C(C)C)c3c2)CC1 [Example 475, 2-(ethyl(methyl)amino)-1-(4-(3-isopropyl-2-(8-methyltetrazolo[1,5-a]pyridin-6-yl)-1H-indol-5-yl)piperidin-1-yl)ethan-1-one] | < 100 nM | < 100 nM | 1000 to 50000 nM
Cc1cc(-c2[nH]c3ccc(C4CCN(C5CCOCC5)CC4)cc3c2C(C)C)nn2ncnc12 [Example 686, 6-(3-isopropyl-5-(1-(tetrahydro-2H-pyran-4-yl)piperidin-4-yl)-1H-indol-2-yl)-8-methyl-[1,2,4]triazolo[1,5-b]pyridazine] | < 100 nM | < 100 nM | 1000 to 50000 nM
Cc1c(-c2[nH]c3ccc(C4CCN(C5CCOCC5)CC4)cc3c2C(C)C)c2cccnc2n1C [Example 691, 3-(3-isopropyl-5-(1-(tetrahydro-2H-pyran-4-yl)piperidin-4-yl)-1H-indol-2-yl)-1,2-dimethyl-1H-pyrrolo[2,3-b]pyridine] | < 100 nM | < 100 nM | 1000 to 50000 nM
Cc1cc2nnnn2cc1-c1[nH]c2ccc(C3CCN(C(=O)CN(C)C)CC3)cc2c1C(C)C [Example 486, 2-(dimethylamino)-1-(4-(3-isopropyl-2-(7-methyltetrazolo[1,5-a]pyridin-6-yl)-1H-indol-5-yl)piperidin-1-yl)ethan-1-one] | < 100 nM | 100 to 1000 nM | 1000 to 50000 nM
CCc1c[nH]c2nccc(-c3[nH]c4ccc(C5CCNCC5)cc4c3C(C)C)c12 [Example 222, 3-ethyl-4-(3-isopropyl-5-(piperidin-4-yl)-1H-indol-2-yl)-1H-pyrrolo[2,3-b]pyridine] | 100 to 1000 nM | < 100 nM | 1000 to 50000 nM
CNCCN1CCC(c2ccc3[nH]c(-c4ccc5c(c4)OCO5)c(C)c3c2)CC1 [Example 670, 2-(4-(2-(benzo[d][1,3]dioxol-5-yl)-3-methyl-1H-indol-5-yl)piperidin-1-yl)-N-methylethan-1-amine] | 100 to 1000 nM | 100 to 1000 nM | 1000 to 50000 nM
